“And” between values parts separate entries of the source, which are not always exact repeats. Equal values may be shown once. Read-outs that look alike come from different tables or passages of the source. Non-standard residues stand in square brackets, D forms with d. No end group written: not given here.
What was measured:
[1] = biological target: T1, tetrameric channel (four-helix bundle M2GlyR) (Homo sapiens, UniProt P23415); conditions: cited from earlier work
T1 construct: four identical M2GlyR peptide units were tethered to a 9-amino acid carrier template to form a four-helix bundle protein; 9-amino acid carrier template (tethers four peptide units); host or cells: synthetic peptide construct reconstituted in lipid bilayers

MDCK cells = assay type: cell-based, canine
From the text: Cell culture: MDCK cells were a generous gift of Dr. Lawrence Sullivan (Kansas University Medical Center, Kansas City, Kans.). T84 cells were obtained from Dr. Daniel Devor (University of Pittsburgh, Pittsburgh, Pa.). MDCK and T84 cells were maintained with similar culture procedures. The culture medium was a 1:1 mixture of DMEM and Ham's F-12 (Gibco BRL, Grand Island, N.Y.) supplemented with 5% heat inactivated fetal bovine serum (BioWhittaker, Walkersville, Md.), and 1% penicillin and streptomycin (Gibco BRL). Cells were grown in plastic culture flasks in a humidified environment with 5% CO2 at 37° C. and passaged every 5-7 days. For Ussing chamber experiments, cells were plated on 1.13 cm^2 permeable supports (Snapwell™, Costar®, Cambridge, Mass.) at a density of approximately 1×10^6 cells/well and incubated in DMEM/F-12 supplemented with FBS and antibiotics (changed every other day) for 2-3 weeks prior to being mounted in modified Ussing flux chambers.
To form monolayers, the cells were plated onto the upper surface of a permeable membrane that forms the bottom of a plastic well. Two types were used. One was the Transwell™ insert (Costar®, Cambridge, Mass.) supported in a six-well tissue culture plate and the other type was the Snapwell™ (Costar®, Cambridge, Mass.). During incubation, the medium was replaced at 48-72 hour intervals. Confluent monolayers formed within 72 hours. Experiments were performed on the monolayers 6-9 days after the initial plating. Net fluid secretion responses were optimal after six days.
Solutions: Ringer solution was made fresh daily. The final concentration (in mM) was 120 NaCl, 25 NaHCO3 3.3 KH2HPO4, 0.8 K2HPO4, 1.2 MgCl2, 1.2 CaCl2, (290±2 mOsmol). All components of the Ringer solution were from Sigma (St. Louis, Mo.).
(§1) Epithelial electrical measurements: Transepithelial ion transport was evaluated in a modified Ussing chamber (Model DCV9, Navicyte, San Diego, Calif.). The Ussing chamber's fluid resistance compensation was completed in Ringer solution (see below). For electrical measurements cell monolayers were bathed in Ringer solution maintained at 37° C. and continuously bubbled with 5% CO2:95% O2. The transepithelial membrane potential (Vte) was clamped to zero and the transepithelial short circuit current (Isc), an indicator of net ion transport, was measured continuously with a voltage clamp apparatus (Model 558C, University of Iowa, Department of Bioengineering, Iowa City, Iowa). Data were digitally acquired at 1 Hz with a Macintosh computer (Apple Computer, Cuppertino, Calif.) using Aqknowledge software (ver. 3.2.6, BIOPAC Systems, Santa Barbara, Calif.) with an MP100A-CE interface.
as §1, with “Transepithelial” for “Epithelial electrical measurements: Transepithelial”, “(composition (in mM) was 120 NaCl, 25 NaHCO3 3.3 KH2HPO4, 0.8 K2HPO4, 1.2 MgCl2, 1.2 CaCl2).” for “(see below).”
MDCK cell monolayers (in the presence of 1-EBIO to maximize basolateral membrane K^+ conductance) were exposed on the apical aspect to escelating peptide concentrations. Maximal change in Isc (relative to the Isc prior to peptide exposure) was recorded following each increment in apical peptide concentration. […]

MDCK monolayers = experiment: Transepithelial electrical resistance (RTE) / conductance (gTE) across MDCK monolayers; assay type: cell-based, canine; conditions: for effect on transepithelial electrical resistance: upon onset of channel activity
Method: as §1, with “Transepithelial” for “Epithelial electrical measurements: Transepithelial”, “(composition (in mM) was 120 NaCl, 25 NaHCO3 3.3 KH2HPO4, 0.8 K2HPO4, 1.2 MgCl2, 1.2 CaCl2).” for “(see below).”
MDCK cell monolayers (in the presence of 1-EBIO to maximize basolateral membrane K^+ conductance) were exposed on the apical aspect to various concentrations of selected peptides as indicated.
In this experiment, the MDCK monolayers were initially incubated with 60 μM of SEQ ID No. 27. When the residual resistance reached approximately 10% of the starting value, the peptide was removed by aspiration and followed by the addition of pre-warmed Ringer solution. This solution was subsequently removed and replaced an additional five times over the next 2 minutes. In this figure, the solid central line represents the measured current at zero mV and the vertical deflections represent the current recorded during periodic 1 mV bipolar pulses. Pulse amplitude is inversely proportional to RTE in accordance with Ohm's law.
Additional experiments have been conducted to test for complete reversibility of peptide-induced changes in RTE. Monolayers were exposed to peptide (60 μM) in an Ussing chamber for ˜20 minutes to document decreases in RTE, recovered and returned to the cell culture incubator for two to five days with the apical and basolateral media refreshed daily before subsequent assessment of basal RTE and responsiveness to peptide. In the previous example, the return of RTE was only followed for hours. In this example, the restoration of RTE was measured over days to determine the minimum time require for full recovery.
Electrical measurements. Transepithelial ion transport was evaluated in modified Ussing chambers (Model DCV9; Navicyte, San Diego, Calif.). For typical electrical measurements of ion flux, cells were bathed in symmetrical Ringer solution (composition in mM: 120 NaCl, 25 NaHCO3, 3.3 KH2HPO4, 0.8 K2HPO4, 1.2 MgCl2, 1.2 CaCl 2; 290±2 mOsmol). The diffusion chambers were maintained at 37° C. and continuously bubbled with 5% CO2/95% O2 to maintain pH, provide aeration and mix the fluid in the chambers. The transepithelial potential (VTE) was clamped to zero, and ISC measured continuously with a voltage-clamp apparatus (Model 558C, University of Iowa, Department of Bioengineering, Iowa City, Iowa). Data were acquired at 1 Hz with a Macintosh computer (Apple Computer, Cuppertino, Calif.) using Aqknowledge software (ver. 3.2.6; BIOPAC Systems, Santa Barbara, Calif.) with an MP100A-CE interface. gTE was determined by exposing the epithelia to a 5 second 1 mV bipolar pulse at 100 second intervals. The recorded current deflections were used with Ohms law to calculate gTE: […]

[2] = Chemical cross-linking (BS3) and SDS-PAGE, oligomeric state of peptide in solution; assay type: physicochemical; conditions: SDS-PAGE
Method: Chemical cross-linking: In order to visualize the oligomeric state of the peptide in solution a chemical cross-linking protocol was developed. Calculated amounts of each peptide were weighted out and dissolved in 1 mL of distilled water to make 1 mM stock solutions. A 100 mM stock solution of the chemical crosslinking reagent Bis[Sulfosuccinimidyl]suberate, BS^3, (Pierce Chemical Co., Rockford, Ill.) was prepared in dimethyl sulfoxide (DMSO). […] Sample were allowed to sit at room temperature for 15 minutes. 1-6 μL of 100 mM BS^3 was then added to the previously prepared peptide such that the crosslinking reagent was present in 20-fold excess. The final volume for each reaction was 100 μL. […] Each sample was then vacuum dried. Later dry samples were re-dissolved in 60 μL of distilled water along with 60 μL of a 2×-tricine SDS sample buffer (Novex, San Diego). All samples were then boiled at 100° C. for 5 minutes. 5 μL aliquots of each SDS boiled sample was then loaded into separate lanes of pre-cast, 1.0 mm, 10 well, 10-20% tricine gels (Novex, San Diego). Pre-made Novex tricine-SDS buffer was used in the electrophoresis. The reference well contained 1 μL of MultiMark® multi-colored molecular weight standard (Novex, San Diego). The electrophoresis was carried out at a constant 110 Volts for 90 minutes. […]

[3] = Circular dichroism in 20% TFE; assay type: physicochemical; conditions: water containing 20% TFE
Method: Circular dichroism: Circular dichroism spectra were recorded on a Jasco Model J-720 spectropolarimeter in the range 180-250 nm using quartz cuvettes with a 0.2 mm pathlength. Eight scans recorded at a rate of 20 nm/minute were averaged and corrected for contributions of buffer (10 mM HEPES, pH 7.2). […] The molar ellipticity was calculated using d-10-camphorsulfonic acid (290.5=7783° cm2 dmol 1) as a reference (Chen, G. C., and J. T. Yang. 1977. Two point calibration of spectropolarimeter with d-10-camphorsulfonic acid. Anal. Lett. 10:1195-1207.). The line shapes of the spectra were analyzed using a least-square fitting routine by comparison to polylysine standards representing 100%-helix, -turn, or random coil, respectively.

[4] = cited from earlier work

## O=C(O)c1c2ccccc2cc2ccccc12 [9-AC, 9-anthracene carboxylic acid]
[1]
  block of the tetrameric channel: blocked

## O=C(O)c1cccnc1Nc1cccc(C(F)(F)F)c1 [NFA, niflumic acid]
[1]
  block of the tetrameric channel: blocked

## Cc1cccc(C)c1NC(=O)C[N+](C)(C)C [QX-222]
[1]
  block of the tetrameric channel: not blocked

## KKKKAARVGLGITTVWVTTIGLGVRAA (KKKKAARVGLGITTVWVTTIGLGVRAA; Modified Homo sapiens) [SEQ ID No. 9]
MDCK cells; peptide at 100 μM
  Activity profile in MDCK cells: 20.0 μA/cm2
MDCK cells; peptide at 100 μM, listed as 9
  Activity profile in MDCK cells: 20.0 at 100 μM μA/cm2
MDCK monolayers
  effect on transepithelial electrical resistance: dramatic decrease in transepithelial electrical resistance
[2]
  aggregation state in solution: remained in monomer form

## KKKKPARVGLGITTVLVTTIGLGVRAA (KKKKPARVGLGITTVLVTTIGLGVRAA; Modified Homo sapiens) [SEQ ID No. 26]
MDCK cells; MDCK monolayers
  peptide concentration producing maximal effect on Isc (Imax): 100 µM
MDCK cells; peptide at 100 μM
  Activity profile in MDCK cells: 25.7 at 100 μM μA/cm2
MDCK monolayers
  effect on transepithelial electrical resistance: dramatic decrease in transepithelial electrical resistance
[3]
  secondary structure by CD: helical structure

## KKKKPARVGLGITTVLTMTTQW (Modified Homo sapiens) [SEQ ID No. 54]
MDCK monolayers
  effect on transepithelial electrical resistance: dramatic decrease in transepithelial electrical resistance

## KKKKPARVGLGITTVLTMTTRW (Modified Homo sapiens) [SEQ ID No. 55]
MDCK monolayers; 100 μM
  decrease in RTE: ~70%
MDCK monolayers; 200 μM
  decrease in RTE: ~90%
MDCK monolayers
  effect on transepithelial electrical resistance: dramatic decrease in transepithelial electrical resistance

## KKKKPARVGLGITTVLVTTIGLGVRAP [SEQ ID No. 18, KKKKPARVGL GITTVLVTTI GLGVRAP]
MDCK cells; MDCK monolayers, modified Hill equation fit, read-out: half maximal effect on Isc (EC50 / K1/2)
  EC50: 50 µM
Isolated cells
  effect on isolated cells: not harmful to isolated cells

## KKKKVTTIGLGVRAPLVTTIGLGVRAA (KKKKVTTIGLGVRAPLVTTIGLGVRAA; Modified Homo sapiens) [SEQ ID No. 5]
MDCK cells; peptide at 500 μM
  Activity profile in MDCK cells: <1.0 at 500 μM μA/cm2
[3]
  secondary structure by CD: beta-sheet

## PARVGLGITTVLTMTTQSSGSRA (PARVGLGITTVLTMTTQSSGSRA; listed as Homo sapiens) [SEQ ID No. 1]
MDCK cells; peptide at 500 μM
  Activity profile in MDCK cells: 1.5 at 500 μM μA/cm2
[4]; 5-fold KCl concentration gradient
  transference number for anions: 0.85
[4]; symmetric 0.5 M KCl, listed as M2GlyR
  single-channel conductance: 25 pS and 49 pS

## PARVGLGITTVLVTTIGLGVRAPKKKK [SEQ ID No. 19, PARVGLGITT VLVTTIGLGV RAPKKKK]
Isolated cells
  effect on isolated cells: cytotoxic effects

## all-D amino acid form of SEQ ID NO. 27: all-D amino acid form of SEQ ID NO. 27 ([dK][dK][dK][dK][dA][dA][dR][dV]G[dL]G[dI][dT][dT][dV][dL][dV][dT][dT][dI]G[dL]G[dV][dR][dA][dA])
MDCK monolayers
  concentration triggering conductance increases: 40 µM
